Values joined by “and” are separate entries in the source; they are usually repeats but may differ in a detail not shown here. Identical values can stand only once.
Legend:
[1] = system: neutrophils; assay: Oxidative metabolism of neutrophils, lucigenin-enhanced chemiluminescence; format: cell-based, human
Protocol: Neutrophil and eosinophil granulocytes were purified from peripheral whole blood using a Percoll gradient and the magnetic cell separation system (MACS).
Granulocytes were primed for 30 minutes at 37° C. with either IL-5 (10.5 ng/mL) or GM-CSF (10.5 ng/mL) and subsequently stimulated with IL-5 (100 ng/mL), GM-CSF (100 ng/mL), LTB4 (10^−7M) or Eoxin (10^−8-10^−6M). Oxidative metabolism was measured by a lucigenin-enhanced chemiluminescence (CL) assay.

[2] = system: human endothelial cell (EC) monolayers; format: cell-based; conditions: no granulocytes present
Excerpt: To explore the ability of 14,15-LTC4 and its metabolites 14,15-LTD4 and 14,15-LTE4 to induce alterations in vascular permeability, an established in vitro permeability assay based on assessment of changes in electrical resistance across human endothelial cell (EC) monolayers was used. Maximum stimulus-induced change in EC resistance in this model reaches down to approximately −70%.
Human umbilical vein endothelial cells (HUVEC) were isolated and cultured as previously described (24). The cells were seeded onto 3 μm pore size polycarbonate filters (Tissue Culture inserts, 10 mm; NUNC, Roskilde, Denmark) at a density of 2×10^5 cells and grown to confluent monolayers. The capacity of arachdonic acid metabolites to induce changes in barrier function of endothelial cell (EC) monolayers was analyzed through continuous registration of transendothelial electrical resistance (TEER) (24). For measurement of TEER, the filter insert with ECs was transferred to a resistance measurement chamber (Endohm-12, World Precision Instruments, Sarasota, Fla., USA) modified so as to assure exact positioning of the electrodes in relation to each other and to the filter insert during repeated measurements. […] The electrical resistance of individual EC monolayers was obtained by subtracting the resistance of the corresponding naked filter coated with Biomatrix as measured prior to seeding of the EC. […]

[3] = system: guinea pig pulmonary parenchymal strip or ileum; conditions: cited from earlier work
[4] = system: confluent bovine endothelium cells; assay: Endothelial cell barrier function (TEER), Example 6a; format: cell-based
Protocol: Bovine aorta endothelial cells (BAEC) and human umbilical vein endothelial cells (HUVEC) were isolated and cultured with calf serum or human serum. BAEC or HUVEC in the first to fifth passages were detached by brief (2 min) trypsin-EDTA treatment (0.25% trypsin/0.01% EDTA) and replated onto 3.0 μm pore size polycarbonate filters (Tissue Culture inserts, 10 mm; NUNC, Roskilde, Denmark) or, for the purpose of visual inspection, 0.2 μm pore size Anopore inorganic membrane (transparent when wet). In order to promote cellular differentiation and enhance attachment of EC, the filters were pretreated with 50 μl Biomatrix 1 (167 μg/ml) and air-dried. EC were seeded at a density of 2×10^5 cells per filter and incubated in culture medium at 37° C. in a humidified atmosphere of 5% CO2 in air. The EC were grown to confluent monolayers, as assessed by daily microscopic observation, in transparent 0.2 μm pore size filters and measurement of the electrical resistance across the monolayer. Under these experimental conditions maximal resistance is obtained at day 7 postseeding, at which day the EC monolayers were then used in the experiments.
Rapid changes in endothelial cell (EC) barrier function in response to various arachidonic acid metabolites were analysed through continuous registration of transendothelial electrical resistance (TEER) with electrodes on each side of EC monolayer^18. For measurement of TEER, the filter insert with ECs was transferred to a resistance measurement chamber (Endohm-12, World Precision Instruments, Sarasota, Fla., USA) modified so as to assure exact positioning of the electrodes in relation to each other and to the filter insert daring repeated measurements. The chamber (low compartment) and the filter insert (upper compartment) were filled with 2 ml and 400 μl culture medium, respectively. All measurements were made at 37° C. with the equipment placed in a cell culture incubator. Direct readings of the electrical resistance were given by an ohmmeter (Evom, World Precision Instruments, Sarasota, Fla., US) connected to the electrodes of the resistance chamber. The electrical resistance of individual EC monolayers was obtained by subtracting the resistance of the corresponding naked filter coated with Biomatrix as measured prior to seeding of the EC. Thus, TEER values represent the resistance of the EC monolayer solely and depend on the development of tight junctions between adjoining endothelial cells.

[5] = system: eosinophils; assay: Metabolism in eosinophils after 5 min of incubation; conditions: 5 min of incubation, 37° C.
Protocol: (§1) Human eosinophils contain abundant amounts of both 15-lipoxygenase and 5-lipoxygenase. […] The cells were incubated for five minutes at 37° C. and the amounts of 14,15-LTC4 and LTC4 were analyzed with RP-HPLC. […] Therefore, measurement of these metabolites is considered to reflect the total formation of 15-lipoxygenase derived cysteinyl-containing 14,15-leukotrienes and 5-lipoxygenase derived cysteinyl-containing leukotriens, respectively.

[6] = Non-enzymatic metabolism during incubation at 37° C.; format: physicochemical; conditions: 60 min incubation at 37° C.
Protocol: In order to analyze if eosinophils can metabolize 14,15-LTC4 to 14,15-LTD4 and 14,15-LTE4, eosinophils were incubated with synthetic 14,15-LTC4 or 14 (R)-cysteinyl-glycyl-15(S)-hydroxy-5,8,10,12(Z,Z,E,E)-eicosatetraenoic acid (14,15-LTD4) for 60 min at 37° C. The metabolites formed were analyzed with product ion scan at 497.2 m/z for 14,15-LTD4 and 440.2 m/z for 14,15-LTE4. The retention time and mass spectrum of a product formed (Metabolite 2) from 14,15-LTC4 were identical to synthetic 14,15-LTD4 (FIG. 30B), and a product formed (Metabolite 3) after incubation with 14,15-LTD4 had identical retention time and mass spectrum as synthetic 14 (R)-cysteinyl-15(S)-hydroxy-5,8,10,12(Z,Z,E,E)-eicosatetraenoic (14,15-LTE4) (FIG. 30C). […] (data not shown). Basically, the product ion mass spectra of 14,15-leukotrienes and corresponding 5-lipoxygenase derived cysteinyl-leukotrienes are almost identical. However, 14,15-leukotrienes form a fragment at 205 m/z, whereas the corresponding fragment in 5-lipoxygenase derived cysteinyl-leukotrienes is at 189 m/z (FIG. 31). These collision induced dissociation products are probably formed by a cleavage next to the carbon where the cysteinyl group is positioned, which is at carbon 14 for 14,15-leukotrienes and carbon 6 for leukotrienes.

[7] = system: eosinophils; assay: Biosynthesis of 14,15-LTC4 and LTC4 in eosinophils (RP-HPLC); format: cell-based, human; conditions: arachidonic acid (10 μM), 5 min, 37° C.; one line per donor 1-11
Protocol: as §1
Isolated eosinophils (1-20×10^6/sample) were resuspended in phosphate buffered saline (1 ml/sample) and pre-incubated for 2 minutes in 37° C. (in presence or absence of indomethacin, 1 μM) prior to stimulation with ionophore A23187 (1 μM)/arachidonic acid (1 or 10 μM)/A23187 plus arachidonic acid/PGD2 (1 μM)/LTC4 (1 μM)/IL-5 (10 ng/ml)/14,15-LTC4 (10 μM) or 14,15-LTD4 (10 μM) for indicated time periods at 37° C. The incubations were terminated by addition of one volume of methanol (for analysis by RP-HPLC). For subsequent analysis by enzyme immunoassay (EIA), reactions were terminated by rapid cool off, 0° C., before centrifugation at 1200×g, 5 min. Supernatants were transferred to cryo tubes and stored in −70° C. until analyzed.
In order to get rid of cellular debris and proteins, centrifugation at 1200×g for 5 min. was performed. Supernatants were evaporated under reduced pressure and the residues resolved in methanol and transferred to a test tube. Samples were thereafter evaporated to dryness under a stream of nitrogen, and finally resuspended in 200 μl mobile phase (acetonitril:methanol:H20:acetic acid, 29:19:72:0.8, pH adjusted to 5.6 with NH3 for analysis of leukotrienes and 14,15-leukotrienes, and methanol:water:trifluoroacetic acid 70:30:0.007 for analysis of monohydroxy acids). The extracted samples were subjected to analysis in a reverse phase HPLC system as described. Briefly, samples were applied to a octadecyl reverse phase column (Chromabond ^18C, Macherey-Nagel, Duren, Germany) and elution rate was 1.2 ml/minute.

[8] = system: cord blood derived mast cells; assay: Biosynthesis of 14,15-LTC4 in IL-4 primed cord blood derived mast cells (EIA); format: cell-based, human; conditions: arachidonic acid (10 μM), 5 min, n=3
Protocol: Mast cells play a key role in the pathophysiology of asthma. Recently, we reported that interleukin-4 (IL-4) induced the expression of 15-LO-1 in human cord blood derived mast cells in vitro and that mast cells express 15-LO-1 in vivo (4). Therefore, it was of interest to investigate if mast cells could produce 14,15-leukotrienes. IL-4 primed mast cells were incubated with arachidonic acid (10 μM) for 5 min. Supernatants were collected and analyzed using an EIA against 14,15-LTC4. Under these conditions, human mast cells released 0.8+/−0.6 pmol/10^6 cells, (n=3), indicating the capacity to synthesise and release immunoreactive 14,15-LTC4 after arachidonic acid stimulation.
Prior to incubation, CBMC cells were primed for four days with IL-4 (10 ng/ml). After mechanical removal and washing in PBS, cells were resuspended in PBS and pre-incubated with or without indomethacin (1 μM) for 2 minutes in 37° C. The CBMC cells were subsequently incubated in 37° C. with arachidonic acid for indicated time periods. Incubations were terminated either by addition of one volume of methanol (LC-MS analysis) or by rapid cool off, 0° C., and subsequently analyzed by EIA.

CCCCC/C=C\C[C@@H](O)/C=C/C=C/C=C\[C@@H](O)CCCC(=O)O [LTB4, leukotriene B4]
oxygen free radical production by non-primed neutrophils ([1]; non-primed blood neutrophils, GM-CSF 100 ng/mL, LTB4 10^−7M, Eoxin 10^−8-10^−6M): induced the oxygen free radical production
effect on EC barrier function [2]: no effect

CCCCC[C@H](O)[C@@H](/C=C/C=C/C=C\C/C=C\CCCC(=O)O)SC[C@H](NC(=O)CC[C@H](N)C(=O)O)C(=O)NCC(=O)O [EoxC4, 14 (R)-glutathionyl-15 (S)-hydroxy-5,8,10,12 (Z,Z,E,E)-eicosatetraenoic acid]
bronchoconstriction ([3]; Drazen et al. 1981): did not induce bronchoconstriction
contractile effects ([3]; guinea pig pulmonary parenchymal strip or ileum): appear not to have contractile effects
plasma leakage / change in TEER ([4]; 10^−7 and 10^−8 M): induce significant plasma leakage
potency relative to the most potent 5-lipoxygenase derived leukotrienes ([4]; FIG. 22): about five to ten times less potent
metabolism in eosinophils [5]: almost no metabolism
non-enzymatic metabolism [6]: no non-enzymatic metabolism
radical production by GM-CSF primed neutrophils ([1]; GM-CSF (10.5 ng/mL) primed, Eoxin 10^−8-10^−6M): induced the radical production by GM-CSF primed neutrophils in a dose-dependent manner
responders ([1]; GM-CSF primed neutrophils): 7-8 subjects of 13

CCCCC/C=C\C/C=C\C/C=C\C/C=C\CCCC(=O)O [Arachidonic acid]
14,15-LTC4 [7]: 58 pmol/10^7 and 74 pmol/10^7 and 34 pmol/10^7 and 12 pmol/10^7 and 26 pmol/10^7 and 46 pmol/10^7 and 16 pmol/10^7 and 22 pmol/10^7 and 48 pmol/10^7 and 40 pmol/10^7 and 32 pmol/10^7
LTC4 [7]: 34 pmol/10^7 and 12 pmol/10^7 and 20 pmol/10^7 and 0 pmol/10^7 (4×) and 6 pmol/10^7 and 10 pmol/10^7 and 38 pmol/10^7 and 22 pmol/10^7
14,15-LTC4 released by mast cells [8]: 0.8+/−0.6 pmol/10^6 cells

From US20090247634A1, “Methods for identifying modulators of eoxin formation” (priority 2006, published 2009)
